Data published in BigSolDB 2.1.

CNC[C@H](O)[C@@H](O)[C@H](O)[C@H](O)CO.Cc1c(Nc2ncccc2C(=O)O)cccc1C(F)(F)F
solubility (mole fraction)
Conditions | 283.15 K | 288.15 K | 293.15 K | 298.15 K | 303.15 K | 308.15 K | 313.15 K | 318.15 K | 323.15 K | 328.15 K
in acetone | 0.00077 | 0.000937 | 0.00119 | 0.00158 | 0.00215 | 0.00275 | 0.00354 | 0.0048 | 0.00698 | 0.0104
in acetonitrile | 3.16e-05 | 3.86e-05 | 4.58e-05 | 6.88e-05 | 0.000109 | 0.000173 | 0.00025 | 0.00035 | 0.000517 | 0.000733
in ethanol | 0.00285 | 0.00353 | 0.00448 | 0.00576 | 0.00775 | 0.0113 | 0.0162 | 0.0228 | 0.0345 | 0.0502
in isopropanol | 0.000626 | 0.000759 | 0.000924 | 0.00118 | 0.00162 | 0.00198 | 0.00299 | 0.00433 | 0.00642 | 0.00934
in methanol | 0.0202 | 0.024 | 0.0293 | 0.0349 | 0.0448 | 0.0547 | 0.0652 | 0.08 | 0.0934 | 0.111
in water | 0.00738 | 0.00886 | 0.0111 | 0.0151 | 0.021 | 0.0286 | 0.0382 | 0.0504 | 0.0633 | 0.0807
